Measured values reported in ChEMBL document CHEMBL1201862, “PubChem BioAssay data set” (2004).
Active and inactive are the calls of the source.

Key:
[1] = HEK-293T cell viability reduction – luminescence, B-cell screen hits, cytotoxicity control for BCR NF-kB inhibitor project, dose response (AID 489021); type: functional, cell-based;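 note: HEK-293T cells carrying an NF-kB luciferase reporter; cells exposed to compound for about 14 hours before viability readout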
[2] = cells
[3] = viability of uninfected HEp-2 cells – cell-based, HTS, cytotoxicity control for RSV inhibitor project, dose response (AID 2410); type: functional; conditions: human respiratory syncytial virus
[4] = viability of HCT116 lacking mutant beta-catenin – cell-based, human colon tumor, dose response (AID 1045); type: functional;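 note: HCT116 colon tumor cells with beta catenin knocked out; cells exposed to compound for 60 hours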
[5] = viability of PTEN-deleted HCT116 cells – cell-based, HCT116 PTEN knockout, dose response (AID 1047); type: functional;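 note: HCT116 colon tumor cells with PTEN knocked out; cells exposed to compound for 60 hours before readout; potency for loss of cell viability measured by luminescence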
[6] = viability loss in THP-1 monocytes – THP-1 cells, cytotoxicity control for Vif-APOBEC3G degradation inhibitor project, dose response (AID 1117359); type: functional; conditions: THP-1
[7] = NIH3T3 cell viability loss – ATP luminescence, mouse fibroblasts, counter-screen, dose response (AID 2010); type: functional, cell-based;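 note: cells exposed to compound for about 90 hours before reading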
[8] = viability loss in HEK293 cells – cell-based, plate reader, cherry-picked samples, cytotoxicity control, dose response (AID 743446); type: functional
[9] = A549 cell cytotoxicity, dose response, cytotoxicity control, plate reader, cherry-pick, antagonist series (AID 743412); type: functional, cell-based
[10] = tested on: Streptococcus; test: GAS UMAA2166 growth inhibition – luminescence, BacTiterGlo, counter-screen for streptokinase expression inhibitor project, dose response (AID 1915); type: functional, organism-based;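 note: potency for reduction of bacterial viability or growth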
[11] = tested on: Streptococcus sp. 'group A'; test: Streptococcus pyogenes SK(-)GAS viability under kanamycin – luminescence, BacTiterGlo, confirmation, counter-screen for streptokinase expression inhibitor project, dose response (AID 1900); type: functional, organism-based
[12] = toxicity toward HepG2 liver cells – cell-based, plate reader, cherry-pick, antagonist series, cytotoxicity control, dose response (AID 743416); type: functional
[13] = target: T1, Streptokinase A (Streptococcus pyogenes serotype M1, UniProt P10520); test: viability-normalized secreted streptokinase activity reduction – plasminogen activation absorbance, OD405, dose response (AID 1914); type: functional, Streptococcus pyogenes M1 GAS;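 note: secreted streptokinase activity via plasminogen activation per viability signal from cell pellet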
T1 sequence (P10520 whole entry): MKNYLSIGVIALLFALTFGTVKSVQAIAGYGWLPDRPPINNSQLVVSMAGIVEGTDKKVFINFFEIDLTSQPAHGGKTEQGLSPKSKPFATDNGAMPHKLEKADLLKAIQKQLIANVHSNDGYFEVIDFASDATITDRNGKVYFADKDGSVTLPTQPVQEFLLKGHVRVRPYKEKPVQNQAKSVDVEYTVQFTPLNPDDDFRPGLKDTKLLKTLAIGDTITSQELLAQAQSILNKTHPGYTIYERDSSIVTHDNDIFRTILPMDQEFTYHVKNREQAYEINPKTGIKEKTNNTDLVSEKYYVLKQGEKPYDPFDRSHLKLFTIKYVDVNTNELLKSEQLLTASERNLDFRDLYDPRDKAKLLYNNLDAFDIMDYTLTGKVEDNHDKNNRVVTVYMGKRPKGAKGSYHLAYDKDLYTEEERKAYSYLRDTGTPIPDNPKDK

[14] = Trypanosoma cruzi growth suppression in host cells – NIH3T3 host cells, beta-gal luminescence, confirmation (AID 2044); type: functional, cell-based;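 note: intracellular parasites grown in NIH/3T3 mouse fibroblasts as host cells; luminescent beta-galactosidase reporter signal from transgenic T. cruzi replicating inside host cells; inhibitors lower the luminescence signal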
[15] = target: T2, Leucine aminopeptidase (Plasmodium falciparum 3D7, UniProt Q8IL11); test: P. falciparum M17LAP inhibitors, primary screen, biochemical, fluorogenic H-Leu-NHMec substrate, 1536-well (AID 1619); type: functional
T2 sequence (Q8IL11 whole entry): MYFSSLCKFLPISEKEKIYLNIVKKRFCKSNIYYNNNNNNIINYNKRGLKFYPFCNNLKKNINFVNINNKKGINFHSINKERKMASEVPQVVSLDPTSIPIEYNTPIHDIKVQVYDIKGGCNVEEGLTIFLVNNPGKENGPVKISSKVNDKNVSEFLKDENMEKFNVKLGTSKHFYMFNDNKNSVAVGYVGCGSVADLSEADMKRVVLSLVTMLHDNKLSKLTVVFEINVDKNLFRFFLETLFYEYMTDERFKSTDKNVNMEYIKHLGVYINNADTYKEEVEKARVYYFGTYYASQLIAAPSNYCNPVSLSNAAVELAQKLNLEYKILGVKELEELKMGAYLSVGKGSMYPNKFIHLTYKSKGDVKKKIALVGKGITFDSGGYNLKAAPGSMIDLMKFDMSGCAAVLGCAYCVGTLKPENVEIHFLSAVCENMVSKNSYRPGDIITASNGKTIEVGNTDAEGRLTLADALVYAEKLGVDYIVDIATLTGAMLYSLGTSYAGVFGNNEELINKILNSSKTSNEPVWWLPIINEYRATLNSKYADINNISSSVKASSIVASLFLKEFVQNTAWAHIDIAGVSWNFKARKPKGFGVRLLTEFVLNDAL

[16] = target: T3, Corticotropin-releasing factor receptor 2/Corticotropin-releasing factor-binding protein (Homo sapiens, UniProt P24387+Q13324); test: Dose Response confirmation of uHTS hits for small molecule antagonists of the CRF-binding protein and CRF-R2 receptor complex.; type: functional; conditions: read-out: IC50_Mean
T3 sequence (Q13324 whole entry): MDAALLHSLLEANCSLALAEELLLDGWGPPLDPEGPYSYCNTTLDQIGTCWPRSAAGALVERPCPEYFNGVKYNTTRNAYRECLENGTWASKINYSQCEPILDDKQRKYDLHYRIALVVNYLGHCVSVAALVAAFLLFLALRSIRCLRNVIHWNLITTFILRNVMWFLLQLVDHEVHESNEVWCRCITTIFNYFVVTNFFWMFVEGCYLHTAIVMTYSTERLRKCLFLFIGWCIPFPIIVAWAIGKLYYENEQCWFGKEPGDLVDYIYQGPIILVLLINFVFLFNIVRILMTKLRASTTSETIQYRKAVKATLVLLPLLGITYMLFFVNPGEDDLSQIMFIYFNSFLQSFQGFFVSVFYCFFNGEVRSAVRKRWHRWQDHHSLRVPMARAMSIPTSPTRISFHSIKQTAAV
T3 sequence (P24387 whole entry): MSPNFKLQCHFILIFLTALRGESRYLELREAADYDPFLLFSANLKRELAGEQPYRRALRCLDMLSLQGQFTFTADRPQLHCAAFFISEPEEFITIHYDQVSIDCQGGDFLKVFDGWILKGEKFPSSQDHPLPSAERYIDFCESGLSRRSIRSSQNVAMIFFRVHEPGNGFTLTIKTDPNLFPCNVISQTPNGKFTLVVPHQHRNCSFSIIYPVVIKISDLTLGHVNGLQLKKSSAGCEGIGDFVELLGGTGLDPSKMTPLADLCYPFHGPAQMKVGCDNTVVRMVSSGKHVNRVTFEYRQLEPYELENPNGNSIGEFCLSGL

[17] = target: T3, Corticotropin-releasing factor receptor 2/Corticotropin-releasing factor-binding protein; test: activators of CRF receptor 2 with binding protein – uHTS hits, confirmation (AID 602473); type: functional; conditions: read-out: EC50_Mean
[18] = microbe, parasite or virus in culture; type: functional; conditions: Mycobacterium tuberculosis
[19] = target: T4, Polyadenylate-binding protein 1 (Homo sapiens, UniProt P11940); test: MLLE binding blockers, Cy5 peptide tracer – biochemical, fluorescence polarization, Cy5-PAM2 peptide, secondary, miRNA deadenylation inhibitor project, dose response (AID 602260); type: functional; conditions: read-out: IC50_Mean
T4 sequence (P11940 whole entry, the tested form may be a part): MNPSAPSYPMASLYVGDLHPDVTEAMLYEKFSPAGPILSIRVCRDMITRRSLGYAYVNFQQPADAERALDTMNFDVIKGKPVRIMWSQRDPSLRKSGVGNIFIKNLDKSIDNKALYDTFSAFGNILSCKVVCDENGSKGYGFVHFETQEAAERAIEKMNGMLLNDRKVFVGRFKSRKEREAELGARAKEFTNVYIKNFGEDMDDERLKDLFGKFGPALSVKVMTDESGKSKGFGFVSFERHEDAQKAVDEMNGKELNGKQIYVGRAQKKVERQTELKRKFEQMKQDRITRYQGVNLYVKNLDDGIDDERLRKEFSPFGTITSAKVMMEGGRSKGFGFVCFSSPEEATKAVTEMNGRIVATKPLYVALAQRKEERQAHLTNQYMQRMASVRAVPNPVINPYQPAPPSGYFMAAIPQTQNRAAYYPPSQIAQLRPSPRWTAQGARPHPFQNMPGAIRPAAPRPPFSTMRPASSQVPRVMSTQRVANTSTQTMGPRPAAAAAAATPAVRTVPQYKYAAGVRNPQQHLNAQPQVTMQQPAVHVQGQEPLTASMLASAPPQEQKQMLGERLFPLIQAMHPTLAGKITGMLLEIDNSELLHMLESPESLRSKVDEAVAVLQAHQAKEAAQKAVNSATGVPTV

[20] = target: T4, Polyadenylate-binding protein 1; test: MLLE domain peptide-binding blockers, IC50 – biochemical, fluorescence polarization, FITC-PAM2 peptide, dose response (AID 602259); type: functional; conditions: read-out: IC50_Mean
[21] = tested on: BJ; test: BJ-TERT-LT-ST fibroblast viability loss – cell-based, RAS-independent, luminescence, dose response (AID 1935); type: functional; conditions: Homo sapiens;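 note: BJ fibroblasts immortalized with TERT plus LT and ST oncogenes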
[22] = tested on: BJ; test: BJ-TERT fibroblast viability loss – cell-based, RAS-independent, luminescence, dose response (AID 1933); type: functional; conditions: Homo sapiens
[23] = DRD fibroblast viability loss – cell-based, non-viral oncogenic, luminescence, dose response (AID 1934); type: functional; conditions: Homo sapiens
[24] = tested on: BJ; test: cells; type: functional, cell-based; conditions: Homo sapiens

In the case of `Oc1[nH]c2ccccc2c1N=Nc1nc(Nc2ccccc2)nc(N2CCOCC2)n1`, the IC50 [1] is reported as 50.1 µM (inactive).
In the case of `O=C(c1ccc(Br)o1)N1CCN(c2ccc3nnc(-c4ccccc4)n3n2)CC1`, the IC50 [2] is reported as 48.6 µM (active).
With `O=C(/C=C/c1ccccc1)Nc1sc2c(c1C(=O)O)CCC2` the CC50 [3] was 19.7 µM (active) and the IC50 [2] was 26.1 µM (active).
In the case of `Cn1c(=O)n(CCc2ccccc2)c(=O)c2c1ncn2Cc1ccccc1`, the EC50 [4] is reported as 97.4 µM (active) and the EC50 [5] is reported as 47.7 µM (active).
With `O=C(Nc1ccc(F)cc1F)NC1CCN(S(=O)(=O)c2ccc(F)cc2)CC1` the CC50 [6] was > 40 µM (active).
For `O=C(O)c1cccc(COc2cccc3ccccc23)c1`, the CC50 [3] was 31.1 µM (active) and the IC50 [2] was 28.2 µM (active).
In the case of `COc1ccc2cnn(CCOc3cc(C)ccc3C(C)C)c(=O)c2c1OC`, the CC50 [6] is reported as > 40 µM (active).
With `Cc1nc2cc(-c3ccc(Cl)cc3)nn2c(C)c1CCC(=O)NCc1ccco1` the IC50 [1] was > 80 µM (inactive).
For `CCOc1cccc2sc(Nc3nc4ccc(NC(C)=O)cc4s3)nc12`, the EC50 [7] was > 60 µM (not active), the AC50 [8] was 24.5 µM (active) and the AC50 [9] was 9.66 µM (active). The EC50 [10] was > 150 µM (not active), the EC50 [11] was 23.3 µM (active) and the AC50 [12] was 5.46 µM (active). For the same compound, the EC50 [13] was > 150 µM (not active) and the EC50 [14] was 2.44 µM (active).
For `Cc1cc(=O)[nH]c(SCC(=O)Nc2ccc(Br)cc2)c1C#N`, the IC50 [15] was 1.48 µM (active), the IC50 [16] was 2.16 µM (active) and the EC50 [17] was 8.83 µM (active). The EC50 [13] was > 150 µM (not active).
In the case of `CSCCC(NS(=O)(=O)c1ccc2nc(O)c(O)nc2c1)C(=O)O` (centres undefined), the IC50 [15] is reported as 6.94 µM (active).
In the case of `Cc1cccc(N2CCN(C(=O)c3ccccc3NC(=O)C3CC=CCC3C(=O)O)CC2)c1` (centres undefined), the IC50 [15] is reported as 19.1 µM (active).
For `CCCCCC(=O)NNC(=S)NC(=O)c1ccc([N+](=O)[O-])cc1`, the CC50 [18] was > 40 µM (active), the IC50 [19] was > 66 µM (inactive) and the IC50 [15] was 49.2 µM (active). The IC50 [20] was > 66 µM (inactive).
In the case of `O=C(c1cccc(N2C(=O)C3C4C=CC(C4)C3C2=O)c1)N1CCN(c2ccccc2Cl)CC1` (centres undefined), the CC50 [3] is reported as > 50 µM (active) and the IC50 [2] is reported as 32.6 µM (active).
With `Cc1cc(/C=C(\C#N)C(=O)NCc2ccco2)c(C)n1-c1ccc(C(=O)O)cc1` the IC50 [15] was 41.1 µM (active).
With `O=C(NC(Cc1ccccc1)c1nc2ccccc2[nH]1)c1cccc([N+](=O)[O-])c1` (centres undefined) the CC50 [6] was > 40 µM (active).
With `CC(=O)c1cccc(NC(S)=NCCC2=CCCCC2)c1` the EC50 [4] was 22.6 µM (active) and the EC50 [5] was 34 µM (active).
In the case of `CC(C)N(C(=O)COC(=O)c1ccccc1C(=O)c1ccc(Cl)c([N+](=O)[O-])c1)C(C)C`, the EC50 [21] is reported as > 75 µM (inconclusive), the AC50 [8] is reported as > 52 µM (inactive) and the AC50 [9] is reported as 34.2 µM (active). The AC50 [12] was > 52 µM (inactive), the EC50 [22] was 15.1 µM (active) and the EC50 [23] was > 150 µM (not active). The EC50 [24] was > 150 µM (not active).
For `Cc1ccccc1NC(=O)C1CCCN1S(=O)(=O)c1cccc2cccnc12` (centres undefined), the CC50 [3] was > 50 µM (active) and the IC50 [2] was 19.5 µM (active).
In the case of `Clc1ccc(OCCCNCc2ccccc2)c(Br)c1`, the EC50 [4] is reported as 17.4 µM (active) and the EC50 [5] is reported as 23.1 µM (active).
In the case of `CCC(CO)Oc1cc(NCc2ccccc2O)c2ncn(C(C)C)c2c1` (centres undefined), the IC50 [1] is reported as > 80 µM (inactive).
For `CC(C)OCCCNC(=O)c1c(N)n(/N=C/c2ccccn2)c2nc3ccccc3nc12`, the IC50 [1] was > 80 µM (inactive).
With `CC1=NNC(=O)C1CCC(=O)N/N=C/C=C/c1ccccc1` (centres undefined) the IC50 [15] was 51.4 µM (active).
